Legend:
[1] = Kinetic solubility of the compound in PBS buffer; assay type: physicochemical
[2] = target: Tumour suppressor p53/oncoprotein Mdm2 (Homo sapiens, UniProt Q00987); assay: Inhibition of 6His-tagged MDM2 (1 to 118) interaction to FITC-tagged p53 (17 to 26) (unknown origin) after 30 mins by fluorescence polarization assay; assay type: protein assay
Sequence of Tumour suppressor p53/oncoprotein Mdm2 (P04637 whole entry): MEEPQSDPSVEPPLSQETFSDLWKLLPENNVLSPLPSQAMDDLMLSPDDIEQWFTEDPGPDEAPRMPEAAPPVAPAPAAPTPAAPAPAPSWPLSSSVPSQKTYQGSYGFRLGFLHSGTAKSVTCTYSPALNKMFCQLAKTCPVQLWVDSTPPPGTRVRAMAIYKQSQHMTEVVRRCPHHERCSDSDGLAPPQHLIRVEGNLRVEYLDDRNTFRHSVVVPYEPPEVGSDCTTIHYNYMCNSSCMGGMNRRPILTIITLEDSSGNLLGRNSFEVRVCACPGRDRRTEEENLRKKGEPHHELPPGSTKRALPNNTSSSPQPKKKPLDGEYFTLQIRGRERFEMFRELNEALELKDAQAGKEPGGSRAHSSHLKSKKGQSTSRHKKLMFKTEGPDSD
Sequence of Tumour suppressor p53/oncoprotein Mdm2 (Q00987 whole entry): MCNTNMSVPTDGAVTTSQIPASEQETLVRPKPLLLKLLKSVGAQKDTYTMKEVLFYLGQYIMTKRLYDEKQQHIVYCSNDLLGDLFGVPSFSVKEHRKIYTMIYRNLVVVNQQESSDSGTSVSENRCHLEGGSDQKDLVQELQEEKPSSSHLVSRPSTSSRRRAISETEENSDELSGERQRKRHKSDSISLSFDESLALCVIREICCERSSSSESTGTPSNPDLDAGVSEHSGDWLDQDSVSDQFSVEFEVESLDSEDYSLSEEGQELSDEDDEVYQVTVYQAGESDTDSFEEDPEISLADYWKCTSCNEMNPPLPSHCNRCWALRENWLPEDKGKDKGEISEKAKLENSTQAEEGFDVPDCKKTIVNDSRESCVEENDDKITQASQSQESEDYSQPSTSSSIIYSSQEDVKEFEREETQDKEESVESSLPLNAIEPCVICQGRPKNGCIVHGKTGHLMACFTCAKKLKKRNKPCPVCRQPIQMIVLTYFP

Compound | Kinetic_solubility [1] | IC50 [2]
CCOc1ccc(C(=O)O)cc1-c1cc(-c2ccccc2OCC)n(CCc2ccccc2)n1 | 0.022 Ug/ml | 10.7 µM
CCCCOc1ccc(CC(=O)O)cc1-c1cc(-c2cccc(OC)c2OC)n(Cc2ccccc2)n1 | > 0.2 Ug/ml | 118 µM
COc1ccc(CCC(=O)O)cc1-c1cc(-c2ccc(Cl)cc2)n(CCc2ccccc2)n1 | 0.046 Ug/ml | 38.9 µM
COc1ccc(CCC(=O)O)cc1-c1cc(-c2ccc(Cl)cc2)n(Cc2ccccc2)n1 | 0.019 Ug/ml | 86.6 µM
CCOc1ccccc1-c1cc(-c2cc(CC(=O)O)ccc2OC)nn1Cc1ccccc1 | 0.138 Ug/ml | 288 µM
COc1ccc(CC(=O)O)cc1-c1cc(-c2ccc(F)cc2)n(Cc2ccccc2)n1 | > 0.2 Ug/ml | 595 µM
CCCCOc1ccc(C(=O)O)cc1-c1cc(-c2ccccc2OCC)n(CCc2ccccc2)n1 | 0.032 Ug/ml | 16.8 µM
CCOc1ccc(CCC(=O)O)cc1-c1cc(-c2ccc(F)cc2)n(CCc2ccccc2)n1 | > 0.2 Ug/ml | 35.8 µM
CCOc1ccccc1-c1cc(-c2cc(C(=O)O)ccc2OC)nn1Cc1ccccc1 | 0.039 Ug/ml | 238 µM
CCOc1ccccc1-c1cc(-c2cc(C(=O)O)ccc2OCC(C)C)nn1CCc1ccccc1 | 0.015 Ug/ml | 14.2 µM
CCOc1ccc(CC(=O)O)cc1-c1cc(-c2cccc(OC)c2OC)n(Cc2ccccc2)n1 | > 0.2 Ug/ml | 348 µM
CCCOc1ccc(CC(=O)O)cc1-c1cc(-c2cccc(OC)c2OC)n(Cc2ccccc2)n1 | > 0.2 Ug/ml | 329 µM
CCOc1ccccc1-c1cc(-c2ccc(C(=O)O)cc2)nn1Cc1ccccc1 | 0.117 Ug/ml | 346 µM
CCOc1ccccc1-c1cc(-c2cc(CC(=O)O)ccc2OCc2cccc(Cl)c2)nn1Cc1ccccc1 | < 0.015 Ug/ml | 54.4 µM
CCCCOc1ccc(CC(=O)O)cc1-c1cc(-c2cccc(OC)c2OC)n(CCc2ccccc2)n1 | 0.117 Ug/ml | 116 µM
CCOc1ccc(CC(=O)O)cc1-c1cc(-c2ccccc2OCC)n(CCc2ccccc2)n1 | > 0.2 Ug/ml | 102 µM
CCOc1ccccc1-c1cc(-c2cc(CC(=O)O)ccc2OC)nn1CCc1ccccc1 | > 0.2 Ug/ml | 339 µM
COc1ccc(CC(=O)O)cc1-c1cc(-c2cccc(OC)c2OC)n(Cc2ccccc2)n1 | > 0.2 Ug/ml | 967 µM
CCCOc1ccc(C(=O)O)cc1-c1cc(-c2cccc(OC)c2OC)n(CCc2ccccc2)n1 | 0.117 Ug/ml | 6.56 µM
COc1cccc(-c2cc(-c3cc(CCC(=O)O)ccc3OCc3cccc(Cl)c3)nn2CCc2ccccc2)c1OC | < 0.015 Ug/ml | 34 µM
CCOc1ccc(C(=O)O)cc1-c1cc(-c2ccccc2OCC)n(Cc2ccccc2)n1 | 0.066 Ug/ml | 111 µM
COc1ccc(CC(=O)O)cc1-c1cc(-c2cccc(OC)c2OC)n(CCc2ccccc2)n1 | > 0.2 Ug/ml | 727 µM
COc1cccc(-c2cc(-c3cc(CC(=O)O)ccc3OCC(C)C)nn2CCc2ccccc2)c1OC | 0.056 Ug/ml | 68.3 µM
COc1ccc(CCC(=O)O)cc1-c1cc(-c2cccc(OC)c2OC)n(Cc2ccccc2)n1 | 0.169 Ug/ml | 449 µM
O=C(O)CCc1ccc(OCc2cccc(Cl)c2)c(-c2cc(-c3ccc(F)cc3)n(Cc3ccccc3)n2)c1 | < 0.015 Ug/ml | 51.9 µM
CCCOc1ccc(CC(=O)O)cc1-c1cc(-c2cccc(OC)c2OC)n(CCc2ccccc2)n1 | 0.117 Ug/ml | 60.6 µM

Compound | Kinetic_solubility [1] | IC50 [2]
COc1ccc(C(=O)O)cc1-c1cc(-c2cccc(OC)c2OC)n(Cc2ccccc2)n1 | > 0.2 Ug/ml | 1020 µM
COc1cccc(-c2cc(-c3cc(C(=O)O)ccc3OCC(C)C)nn2CCc2ccccc2)c1OC | 0.056 Ug/ml | 8.22 µM
CCOc1ccc(CCC(=O)O)cc1-c1cc(-c2ccccc2OCC)n(CCc2ccccc2)n1 | 0.102 Ug/ml | 105 µM
CCCCOc1ccc(CC(=O)O)cc1-c1cc(-c2ccccc2OCC)n(CCc2ccccc2)n1 | 0.096 Ug/ml | 54.1 µM
COc1cccc(-c2cc(-c3cc(CCC(=O)O)ccc3OCc3cccc(Cl)c3)nn2Cc2ccccc2)c1OC | < 0.015 Ug/ml | 31.6 µM
CCCOc1ccc(C(=O)O)cc1-c1cc(-c2ccccc2OCC)n(Cc2ccccc2)n1 | 0.096 Ug/ml | 68.8 µM
CCOc1ccc(C(=O)O)cc1-c1cc(-c2cccc(OC)c2OC)n(CCc2ccccc2)n1 | > 0.2 Ug/ml | 14 µM
CCOc1ccc(C(=O)O)cc1-c1cc(-c2cccc(OC)c2OC)n(Cc2ccccc2)n1 | 0.138 Ug/ml | 295 µM
CCCOc1ccc(C(=O)O)cc1-c1cc(-c2cccc(OC)c2OC)n(Cc2ccccc2)n1 | > 0.2 Ug/ml | 79.3 µM
CCOc1ccccc1-c1cc(-c2cc(CC(=O)O)ccc2OCc2cccc(Cl)c2)nn1CCc1ccccc1 | < 0.015 Ug/ml | 249 µM
CCOc1ccccc1-c1cc(-c2ccc(C(=O)O)cc2)nn1CCc1ccccc1 | > 0.2 Ug/ml | 91.2 µM
CCCOc1ccc(CC(=O)O)cc1-c1cc(-c2ccccc2OCC)n(CCc2ccccc2)n1 | 0.066 Ug/ml | 72 µM
O=C(O)Cc1ccc(OCc2ccccc2Cl)c(-c2cc(-c3ccc(F)cc3)n(Cc3ccccc3)n2)c1 | < 0.015 Ug/ml | 130 µM
CCOc1ccc(CCC(=O)O)cc1-c1cc(-c2cccc(OC)c2OC)n(Cc2ccccc2)n1 | > 0.2 Ug/ml | 353 µM
CCOc1ccccc1-c1cc(-c2cc(C(=O)O)ccc2OC)nn1CCc1ccccc1 | > 0.2 Ug/ml | 232 µM
CCOc1ccccc1-c1cc(-c2cc(CC(=O)O)ccc2OCC(C)C)nn1CCc1ccccc1 | 0.046 Ug/ml | 48.7 µM
COc1ccc(CCC(=O)O)cc1-c1cc(-c2ccc(F)cc2)n(Cc2ccccc2)n1 | 0.066 Ug/ml | 17 µM
CCOc1ccccc1-c1cc(-c2cc(CCC(=O)O)ccc2OC)nn1Cc1ccccc1 | > 0.2 Ug/ml | 388 µM
COc1ccc(CCC(=O)O)cc1-c1cc(-c2cccc(OC)c2OC)n(CCc2ccccc2)n1 | > 0.2 Ug/ml | 436 µM
CCOc1ccccc1-c1cc(-c2cc(CCC(=O)O)ccc2OC)nn1CCc1ccccc1 | > 0.2 Ug/ml | 258 µM
COc1cccc(-c2cc(-c3cc(CC(=O)O)ccc3OCC(C)C)nn2Cc2ccccc2)c1OC | > 0.2 Ug/ml | 120 µM
O=C(O)CCc1ccc(OCc2cccc(Cl)c2)c(-c2cc(-c3ccc(F)cc3)n(CCc3ccccc3)n2)c1 | < 0.015 Ug/ml | 47.8 µM
CCOc1ccc(CCC(=O)O)cc1-c1cc(-c2ccc(F)cc2)n(Cc2ccccc2)n1 | < 0.015 Ug/ml | 101 µM
CCCCOc1ccc(C(=O)O)cc1-c1cc(-c2cccc(OC)c2OC)n(CCc2ccccc2)n1 | 0.066 Ug/ml | 14.2 µM
COc1ccc(C(=O)O)cc1-c1cc(-c2cccc(OC)c2OC)n(CCc2ccccc2)n1 | > 0.2 Ug/ml | 186 µM
O=C(O)c1ccc(-c2cc(-c3ccc(F)cc3)n(CCc3ccccc3)n2)cc1 | 0.096 Ug/ml | 128 µM

— ChEMBL document CHEMBL3132806, “Dual mode of action of phenyl-pyrazole-phenyl (6-5-6 system)-based PPI inhibitors: alpha-helix backbone versus alpha-helix binding epitope” (Medchemcomm, 2013)
